From the CheMixHub viscosity set

Experiment: xn = mol fraction of the nth substance listed

O=CO + O
Settings	viscosity [mPa·s]
293.15 K, 101.33 kPa, x1 = 0.0417	1.098
293.15 K, 101.33 kPa, x1 = 0.1309	1.195
293.15 K, 101.33 kPa, x1 = 0.144	1.216
293.15 K, 101.33 kPa, x1 = 0.1574	1.215
293.15 K, 101.33 kPa, x1 = 0.2621	1.323
293.15 K, 101.33 kPa, x1 = 0.2708	1.328
293.15 K, 101.33 kPa, x1 = 0.281	1.344
293.15 K, 101.33 kPa, x1 = 0.2928	1.347
293.15 K, 101.33 kPa, x1 = 0.3352	1.394
293.15 K, 101.33 kPa, x1 = 0.338	1.4
293.15 K, 101.33 kPa, x1 = 0.3556	1.4
293.15 K, 101.33 kPa, x1 = 0.3729	1.414
293.15 K, 101.33 kPa, x1 = 0.4039	1.478
293.15 K, 101.33 kPa, x1 = 0.4086	1.48
293.15 K, 101.33 kPa, x1 = 0.4832	1.519
293.15 K, 101.33 kPa, x1 = 0.5055	1.525
293.15 K, 101.33 kPa, x1 = 0.5951	1.601
293.15 K, 101.33 kPa, x1 = 0.9418	1.68
298.15 K, 101 kPa, x1 = 0.0122	0.907
298.15 K, 101 kPa, x1 = 0.1286	1.041
298.15 K, 101 kPa, x1 = 0.525	1.379
298.15 K, 101.33 kPa, x1 = 0.1037	0.979
298.15 K, 101.33 kPa, x1 = 0.1496	1.029
298.15 K, 101.33 kPa, x1 = 0.1753	1.039
298.15 K, 101.33 kPa, x1 = 0.2194	1.076
298.15 K, 101.33 kPa, x1 = 0.3029	1.174
298.15 K, 101.33 kPa, x1 = 0.3271	1.219
298.15 K, 101.33 kPa, x1 = 0.3334	1.227
298.15 K, 101.33 kPa, x1 = 0.3355	1.228
298.15 K, 101.33 kPa, x1 = 0.3729	1.268
298.15 K, 101.33 kPa, x1 = 0.4205	1.305
298.15 K, 101.33 kPa, x1 = 0.4762	1.356
298.15 K, 101.33 kPa, x1 = 0.4906	1.36
298.15 K, 101.33 kPa, x1 = 0.5185	1.362
298.15 K, 101.33 kPa, x1 = 0.6055	1.427
298.15 K, 101.33 kPa, x1 = 0.9418	1.598
303.15 K, 101 kPa, x1 = 0.0501	0.849
303.15 K, 101 kPa, x1 = 0.1061	0.897
303.15 K, 101 kPa, x1 = 0.169	0.95
303.15 K, 101 kPa, x1 = 0.2404	0.994
303.15 K, 101 kPa, x1 = 0.3219	1.062
303.15 K, 101 kPa, x1 = 0.4159	1.156
303.15 K, 101 kPa, x1 = 0.5255	1.159
303.15 K, 101 kPa, x1 = 0.655	1.234
303.15 K, 101 kPa, x1 = 0.8103	1.288
313.15 K, 101.33 kPa, x1 = 0.0417	0.729
313.15 K, 101.33 kPa, x1 = 0.144	0.809
313.15 K, 101.33 kPa, x1 = 0.281	0.92

C1CN2CN3CCN(CN1C3)C2 + O
viscosity [mPa·s], 101 kPa
Settings	x1 = 0.003598	x1 = 0.007216	x1 = 0.01073	x1 = 0.01425	x1 = 0.0183
293.15 K	1.032	1.083	1.146	1.232	1.347
298.15 K	0.928	0.985	1.047	1.129	1.24
300.15 K	0.843	0.899	0.961	1.04	1.136
305.15 K	0.764	0.822	0.88	0.96	1.054
